From publication PMC8556439, “Modeling the time course of ComX: towards molecular process control for Bacillus wild-type cultivations” (AMB Express, 2021)

Key:
[1] = cited from earlier work
Experimental: The LC–MS analysis of extracellular ComX also confirmed degradation after reaching a peak during cultivation process, which was also detected by the bioassay (Additional file 1: Figure S2a). Resembling Henkel et al. ([2013]), experiments were performed with respect to (i) autodegradation, (ii) extracellular degradation and (iii) intracellular degradation (Fig. 1), to obtain deeper understanding of the degradation kinetics of ComX. […] Here, an increase in EACSP was initially observed and, after reaching a maximum, a slight downward trend was seen, which was also accompanied by calculated degradation rates. The highest modeled EACSP = 66.3 ∆A/(h·mL) was reached after 20.5 h, which is concomitant to the highest measured degradation rate after 16 h. […] However, to unveil a potential autodegradation effe ... || To allow for this optimization strategy, profound quantitative knowledge must be gathered as an initial step. This was done in the presented study regarding surfactin production and ComX pheromone progression, providing new insights into this crosstalk. Several bioreactor batch fermentations with different initial glucose concentrations were performed to illustrate different lengths of growth phases of B. subtilis DSM 10^ T. Thereby the general progression of ComX activity was consistent for all bioreactor set-ups, regardless of varying experimental set-ups. During exponential growth, an initi ...

[2] = assay type: physicochemical; conditions: pH 7
Experimental: (§1) Due to the high complexity of ComX purification, the pheromone was measured with a bioassay based on the principle provided by Magnuson et al. ([1994]). Thereby, reporter strain CT2 (∆comX::kan; PsrfA-lacZ) can be used as an assay reagent and a ComX-dependent expression of lacZ can be determined by measuring the β-galactosidase activity with the Miller assay (Miller [1972]). The employed bioassay is further in line with a recently published method, provided by Dogsa et al. ([2021]). A detailed description of the working principle and further validation experiments are given in the supplementary information. In brief, a main culture of strain CT2 was inoculated with preculture II to a starting OD600 of 0.1 and incubated for 3 h at 120 rpm and 37 °C. […] Bnk values were measured using the respective sterile cultivation medium instead of sampled cell-free supernatant. The limit of detection (LOD) and limit of quantification (LOQ) was calculated from 20 samples using Eqs. […]
(§2) For autodegradation studies, strain DSM 10^ T was additionally cultivated in 3000 mL shake flasks using MSM with 40 g/L glucose. […] The incubation was performed in biological duplicates for 24 h at 120 rpm and 37 °C and samples were taken regularly and analyzed for OD600, ComX and peptidase activity.

[3] = tested on: extracellular proteases; assay: ComX extracellular degradation in cell-free supernatant of bioreactor cultivation; assay type: in vitro ADME, B. subtilis DSM 10T; conditions: spectinomycin 100 µg/mL, incubated 120 rpm, 37 °C, sampled 0-8 h, ComX bioassay, biological duplicates
Experimental: as §1
Cell-free supernatant was obtained from bioreactor cultivation with 40 g/L glucose by two centrifugation steps for 30 min at 4816 g and 4 °C (Heraeus X3R, Thermo Fisher Scientific GmbH, Braunschweig, Germany). […] Samples were taken after t = 0, 1, 2, 3, 4, 6 and 8 h and analyzed for ComX and peptidase activity and the ComX degradation rate in (MU/h) was calculated from the measured data.

[4] = tested on: B. subtilis BKK31700 (∆comX); assay: ComX intracellular degradation: ComX deficient strain cultivated in spent medium; assay type: in vitro ADME; conditions: ComX bioassay, biological duplicates
Experimental: as §1, §2

[5] = tested on: PsrfA; conditions: ref Magnuson et al. [1994], Okada et al. [2005], [2007], Dogsa et al. [2021], cited from earlier work
Experimental: (§3) To allow for this optimization strategy, profound quantitative knowledge must be gathered as an initial step. This was done in the presented study regarding surfactin production and ComX pheromone progression, providing new insights into this crosstalk. Several bioreactor batch fermentations with different initial glucose concentrations were performed to illustrate different lengths of growth phases of B. subtilis DSM 10^ T. Thereby the general progression of ComX activity was consistent for all bioreactor set-ups, regardless of varying experimental set-ups. During exponential growth, an initi ...

[6] = ref Rangarajan and Clarke [2015]; cited from earlier work
Experimental: as §3

## ADPITRQ WGD [ComX, quorum sensing pheromone of B. subtilis, farnesylated peptide secreted into culture supernatant; not purified, measured in supernatant]
[1]; at 80 °C, ref Magnuson et al. ([1994])
  heat stability of ComX (time stable): 12 h
[1]; especially serine proteases, ref Spacapan et al. ([2018]) and Magnuson et al. ([1994])
  sensitivity of ComX to extracellular proteases: sensitive to extracellular proteases
[1]; purified ComX, storage, ref Dogsa et al. ([2021])
  storage time after which a degradation effect was observed: 100 days
[1]; ref Okada et al. [2007]
  stability of ComX in acidic environments: does not appear to be stable
[2]
  remaining ComX activity after 8 h of incubation (autodegradation study): 251.1 ± 17.1 MU
[3]; cell-free supernatant from bioreactor cultivation 40 g/L glucose taken after approximately 16 h
  ComX degradation rate (highest): 9.2 ± 2.1 MU/h
[3]; cell-free supernatant from bioreactor cultivation 40 g/L glucose taken after approximately 35 h
  ComX degradation rate: 8.4 ± 0.5 MU/h
[4]; BKK31700 cells in spent filtered medium of DSM 23778, 4 g/L glucose added, 24 h, 120 rpm, 37 °C
  ComX activity remaining after 24 h of cultivation (intracellular degradation study): 103.2 ± 11.4 MU
[4]; washed BKK31700 cells resuspended in spent filtered medium of DSM 23778, 4 g/L glucose added
  initial ComX activity at t0 (intracellular degradation study): 96.5 ± 3.0 MU
[5]
  ComX concentration at saturation of response: around 10 nM
[5]; read-out: ComX concentration at half maximum response
  EC50: 3 to 4 nM

## surfactin
[6]
  pH at which surfactin precipitation may occur: 5.0 to 6.0 pH
